Like-named read-outs stand apart in the source and are kept apart here.
Columns and labels:
Assay in all cases: Colony forming assay, effect of EGF on cisplatin sensitivity
Format in all cases: cell-based, human
[1] = system: A549 non-small cell lung cancer cells
Text: (§1) The following cell lines were used in these studies: 2008 human ovarian carcinoma (Disaia, et al., Am. J. Obstet. Gynecol. 114:978 (1972)), COLO 316 human ovarian carcinoma (Woods et al., Cancer Res. 39:4449 (1979)), a DDP resistant variant 2008/C13*, derived from the parent 2008 cell line (Andrews, et al., Cancer Res. 45:6250 (1985)), A549 non-small cell lung cancer (Lieber et al., Int. J. Cancer 17:62 (1976)), NCI-H520 squamous cell lung cancer (Brower et al., Cancer Res. 46: 798 (1986)), NCI-H596 adenosquamous lung cancer (Banks-Schlegel et al., Cancer Res. 45: 1187 (1985)), UMC 31 small cell lung cancer cells (Graziano et al., Genes, Chromosomes and Cancer 3: 283 (1991)), GLC4 small cell lung cancer cells (Zijlstra et al., Cancer Res. 47: 1780 (1987)), UMCC10b head and neck cancer cells (Krause et al., Arch. Otolayngol. 107: 703 (1981)), 5637 bladder cancer cells (Fogh et al., J. Natl. Cancer Inst. 58: 209 (1977)), MIA PaCa-2 pancreatic cancer cells (Yunis et al., Int. J. Cancer 19:128 (1977)), Du 145 prostate cancer (Mickey Cancer Res. 37: 4049 (1977)) , COLO 205 colon cancer (Semple et al., Cancer Res. 38:1345 (1978)), KB-3-1 cervix cancer (Akiyama et al., Somat. Cell Mol. Genet. 11: 117 (1985)) , MCF-7 breast cancer (Soule et al., J. Natl. Cancer Inst. 51:1409 (1973)), A431 epidermoid carcinoma of the skin (Giard et al., J. Natl. Cancer Inst. 51: 1417 (1973)) and T-289 melanoma cells (Taetle et al., Cancer (Philadelphia) 60: 1836 (1987)). The human cell line 2008 was established from a patient with a serous cystadenocarcinoma of the ovary. The 8-fold DDP resistant cell line 2008/C13* was generated by 13 monthly selections with […], followed by chronic exposure to stepwise increasing concentrations of DDP, from 0.25 to 5 uM. A resistant subline, designated 2008/C13*5, was obtained by monthly selections with 1 μM DDP. The cells were grown on tissue culture dishes in a humidified incubator at 37° C. and 5% CO2 atmosphere. Cells were grown in either of the following types of media: RPMI 1640, RPMI 1640 plus HITES buffer, DMEM low glucose, or DMEM high glucose supplemented with 5% to 10% heat inactivated fetal calf serum and 2 mM glutamine.
(§2) Colony forming assays were used to assess the effect of each drug on the sensitivity of various tumor cell lines to cytotoxic agents (Andrews, et al., Chem.-Biol. Interact 65:51-58 (1988)). For assays performed on plastic tissue culture dishes, five ml of suspended cells were plated on 60-mm polystyrene tissue culture dishes (Corning Glass Works, Corning, N.Y.). Cells were allowed to attach overnight, then 10 μl of stock drug solution was added to triplicate plates at each drug concentration. Control plates received diluent alone. After 1 h, the drug-containing medium was aspirated and replaced with drug free medium. Plates were incubated in humidified 5% CO2 air, and after 14 days plates were fixed with methanol and stained with Giemsa. Colonies of over 60 cells were counted macroscopically.
(§3) The drug containing media was removed and cells were resuspended in 5 ml of complete medium containing 0.36% low melting-temperature agarose at 37° C. The cell suspension was mixed well and then aliquotted at 1 ml per dish in triplicate onto prepared 35 mm dishes containing a basement layer of solidified 1% agarose. The cell-containing layer was allowed to solidify at 4° C. for 10 minutes, and the dishes were incubated at 37° C. in humidified 5% CO2. Colonies greater than 125 um were counted after 5 days.
(§4) ^a Dose response curves were determined by colony forming assay. Cell

[2] = system: UMSCC 10b head and neck cancer cells
Text: as §1, §2, §3, §4

[3] = system: MCF-7 breast cancer cells
Text: as §1, §2, §3, §4

[4] = system: Du 145 prostate cancer cells
Text: as §1, §2, §3, §4

[5] = system: COLO 205 colon cancer cells
Text: as §1, §2, §3, §4

[6] = system: T-289 malignant melanoma cells
Text: as §1, §2, §3, §4

[7] = system: UMC 31 small cell lung cancer cells
Text: as §1, §2, §3, §4

[8] = system: KB-3-1 cervix cancer cells
Text: as §1, §2, §3, §4

[9] = system: MIA PaCa-2 pancreatic cancer cells
Text: as §1, §2, §3, §4

[10] = system: GLC 4 small cell lung cancer cells
Text: as §1, §2, §3, §4

[11] = ratio of IC50 in control and EGF-treated cells
[12] = read-out: IC50 in absence of EGF, cisplatin 1 h, no EGF
[13] = read-out: IC50 in presence of EGF, 10 nM EGF and cisplatin concurrently for 1 h

N.N.[Cl][Pt][Cl] [cisplatin]
Dose modifying factor [1, 11]: 2.0
IC50 ([1]; read-out: IC50 in absence and presence of EGF (single figure printed), 10 nM EGF and cisplatin concurrently for 1 h): 14.5 µM
Dose modifying factor [2, 11]: 3.8
IC50 [2, 12]: 6.76 µM
IC50 [2, 13]: 1.76 µM
Dose modifying factor [3, 11]: 1.0
IC50 [3, 12]: 3.82 µM
IC50 [3, 13]: 3.8 µM
Dose modifying factor [4, 11]: 1.5
IC50 [4, 12]: 8.52 µM
IC50 [4, 13]: 5.52 µM
Dose modifying factor [5, 11]: 1.7
IC50 [5, 12]: 27.6 µM
IC50 [5, 13]: 16.5 µM
Dose modifying factor [6, 11]: 0.8
IC50 [6, 12]: 2.02 µM
IC50 [6, 13]: 2.49 µM
Dose modifying factor [7, 11]: 0.8
IC50 [7, 12]: 5.4 µM
IC50 [7, 13]: 6.86 µM
Dose modifying factor [8, 11]: 2.0
IC50 [8, 12]: 9.71 µM
IC50 [8, 13]: 4.79 µM
Dose modifying factor [9, 11]: 1.4
IC50 [9, 12]: 7.65 µM
IC50 [9, 13]: 5.53 µM
Dose modifying factor [10, 11]: 0.7
IC50 [10, 12]: 12.2 µM
IC50 [10, 13]: 18.2 µM

Source: US5597798A, “Taxol and epidermal growth factor used to enhance treatment of ovarian cancer” (The Regents of the University of California, priority 1994, dated 1997)
